Assay results reported in patent publication US20070043049A1, “Substituted heterocyclic diarylamine analogues” (Neurogen Corporation, priority 2003, published 2007).

What follows are compounds tested against T1, human capsaicin receptor (Homo sapiens, UniProt Q8NER1) (assay: Calcium mobilization assay, determination of antagonist activity (Example 6)). Details: 50% decrease in fluorescence response of cells expressing human capsaicin receptor exposed to capsaicin.
T1 construct: pBK-CMV expression construct encoding the full length human capsaicin receptor; expressed in transfected cells
Format: cell-based
Protocol: A cDNA encoding full length human capsaicin receptor (SEQ ID NO:1, 2 or 3 of U.S. Pat. No. 6,482,611) was subcloned in the plasmid pBK-CMV (Stratagene, La Jolla, Calif.) for recombinant expression in mammalian cells.
Human embryonic kidney (HEK293) cells were transfected with the pBK-CMV expression construct encoding the full length human capsaicin receptor using standard methods. The transfected cells were selected for two weeks in media containing G418 (400 μg/ml) to obtain a pool of stably transfected cells. Independent clones were isolated from this pool by limiting dilution to obtain clonal stable cell lines for use in subsequent experiments.
Cells transfected with expression plasmids (as described in Example 4) and thereby expressing human capsaicin receptor are seeded and grown to 70-90% confluency in FALCON black-walled, clear-bottomed 96-well plates (#3904, BECTON-DICKINSON, Franklin Lakes, N.J.). The culture medium is emptied from the 96 well plates and FLUO-3 AM calcium sensitive dye (Molecular Probes, Eugene, Oreg.) is added to each well (dye solution: 1 mg FLUO-3 AM, 440 μL DMSO and 440 μl 20% pluronic acid in DMSO, diluted 1:250 in Krebs-Ringer HEPES (KRH) buffer (25 mM HEPES, 5 mM KCl, 0.96 mM NaH2PO4, 1 mM MgSO4, 2 mM CaCl2, 5 mM glucose, 1 mM probenecid, pH 7.4), 50 μl diluted solution per well). Plates are covered with aluminum foil and incubated at 37° C. for 1-2 hours in an environment containing 5% CO2. After the incubation, the dye is emptied from the plates, and the cells are washed once with KRH buffer, and resuspended in KRH buffer.
To measure the ability of a test compound to agonize or antagonize a calcium mobilization response in cells expressing capsaicin receptors to capsaicin or other vanilloid agonist, the EC50 of the agonist capsaicin is first determined. An additional 20 μl of KRH buffer and 1 μl DMSO is added to each well of cells, prepared as described above. 100 μl capsaicin in KRH buffer is automatically transferred by the FLIPR instrument to each well. Capsaicin-induced calcium mobilization is monitored using either FLUOROSKAN ASCENT (Labsystems; Franklin, Mass.) or FLIPR (fluorometric imaging plate reader system; Molecular Devices, Sunnyvale, Calif.) instruments. Data obtained between 30 and 60 seconds after agonist application are used to generate an 8-point concentration response curve, with final capsaicin concentrations of 1 nM to 3 μM. KALEIDAGRAPH software (Synergy Software, Reading, Pa.) is used to fit the data to the equation: y=a*(1/(1+(b/x)^c)) to determine the 50% excitatory concentration (EC50) for the response. In this equation, y is the maximum fluorescence signal, x is the concentration of the agonist or antagonist (in this case, capsaicin), a is the Emax, b corresponds to the EC50 value and c is the Hill coefficient. Determination of Agonist Activity
Test compounds are dissolved in DMSO, diluted in 20 μl KRH buffer so that the final concentration of test compounds in the assay well is between 1 μM and 5 μM, and added to cells prepared as described above. The 96 well plates containing prepared cells and test compounds are incubated in the dark, at room temperature for 0.5 to 6 hours. It is important that the incubation not continue beyond 6 hours. Just prior to determining the fluorescence response, 100 μl capsaicin in KRH buffer at twice the EC50 concentration determined as described above is automatically added by the FLIPR instrument to each well of the 96 well plate for a final sample volume of 200 μl and a final capsaicin concentration equal to the EC50. The final concentration of test compounds in the assay wells is between 1 μM and […]. […] The concentration of antagonist required to provide a 50% decrease, relative to the response observed in the presence of capsaicin and without antagonist, is the IC50 for the antagonist, and is preferably below 1 micromolar, 100 nanomolar, 10 nanomolar or 1 nanomolar.

T1 sequence (Q8NER1 whole entry): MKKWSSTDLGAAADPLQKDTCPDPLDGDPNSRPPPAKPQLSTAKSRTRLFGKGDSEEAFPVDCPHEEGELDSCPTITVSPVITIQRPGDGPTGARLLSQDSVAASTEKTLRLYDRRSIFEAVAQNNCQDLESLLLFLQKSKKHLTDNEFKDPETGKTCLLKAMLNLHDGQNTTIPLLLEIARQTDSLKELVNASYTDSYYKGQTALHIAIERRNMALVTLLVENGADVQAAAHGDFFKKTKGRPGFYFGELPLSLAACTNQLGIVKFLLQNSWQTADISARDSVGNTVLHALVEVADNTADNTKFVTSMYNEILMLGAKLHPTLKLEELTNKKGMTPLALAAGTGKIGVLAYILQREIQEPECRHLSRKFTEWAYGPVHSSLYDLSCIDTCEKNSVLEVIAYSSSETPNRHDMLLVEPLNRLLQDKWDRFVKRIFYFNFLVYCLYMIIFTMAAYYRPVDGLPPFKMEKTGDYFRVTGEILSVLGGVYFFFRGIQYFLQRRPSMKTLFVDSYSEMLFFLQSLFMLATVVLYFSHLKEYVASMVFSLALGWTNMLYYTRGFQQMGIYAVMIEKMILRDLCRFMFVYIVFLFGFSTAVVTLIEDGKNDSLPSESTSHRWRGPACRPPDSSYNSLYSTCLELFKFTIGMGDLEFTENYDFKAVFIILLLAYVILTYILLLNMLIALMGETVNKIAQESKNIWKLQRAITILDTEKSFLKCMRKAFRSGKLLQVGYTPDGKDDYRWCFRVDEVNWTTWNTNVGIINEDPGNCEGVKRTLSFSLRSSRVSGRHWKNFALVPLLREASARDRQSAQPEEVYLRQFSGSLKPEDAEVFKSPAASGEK

IC50, ≤ 1000 nM:
FC(F)(F)c1ccc(Nc2nc(Cl)nc(N3CCN(c4ncccc4Cl)CC3)n2)cc1 [Compound 45, {4-Chloro-6-[4-(3-chloro-pyridin-2-yl)-piperazin-1-yl]-[1,3,5]triazin-2-yl}-(4-trifluoromethyl-phenyl)-amine]
CNc1nc(Nc2ccc(C(F)(F)F)cc2)nc(N2CCN(c3ncccc3Cl)CC2)n1 [Compound 46, 6-[4-(3-Chloro-pyridin-2-yl)-piperazin-1-yl]-N-methyl-N′-(4-trifluoromethyl-phenyl)-[1,3,5]triazine-2,4-diamine]
CC(C)N(C)c1nc(Nc2ccc(C(F)(F)F)cc2)nc(N2CCN(c3ncccc3C(F)(F)F)CC2)n1 [Compound 47, N-Isopropyl-N-methyl-N′-(4-trifluoromethyl-phenyl)-6-[4-(3-trifluoromethyl-pyridin-2-yl)-piperazin-1-yl]-[1,3,5]triazine-2,4-diamine]
CCCN(C)c1nc(Nc2ccc(C(F)(F)F)cc2)nc(N2CCN(c3ncccc3C(F)(F)F)CC2)n1 [Compound 48, N-Methyl-N-propyl-N′-(4-trifluoromethyl-phenyl)-6-[4-(3-trifluoromethyl-pyridin-2-yl)-piperazin-1-yl]-[1,3,5]triazine-2,4-diamine]
CC(C)N(C)c1nc(Nc2ccc(C(F)(F)F)cc2)nc(N2CCN(c3ncccc3Cl)CC2)n1 [Compound 49, 6-[4-(3-Chloro-pyridin-2-yl)-piperazin-1-yl]-N-isopropyl-N-methyl-N′-(4-trifluoromethyl-phenyl)-[1,3,5]triazine-2,4-diamine]
CCN(c1nc(Nc2ccc(C(F)(F)F)cc2)nc(N2CCN(c3ncccc3Cl)CC2)n1)C(C)C [Compound 50, 6-[4-(3-Chloro-pyridin-2-yl)-piperazin-1-yl]-N-ethyl-N-isopropyl-N′-(4-trifluoromethyl-phenyl)-[1,3,5]triazine-2,4-diamine]
CN(C)c1nc(Nc2ccccc2)nc(N2CCN(c3ncccc3C(F)(F)F)CC2)n1 [Compound 51, N,N-Dimethyl-N′-phenyl-6-[4-(3-trifluoromethyl-pyridin-2-yl)-piperazin-1-yl]-[1,3,5]triazine-2,4-diamine]
FC(F)(F)c1ccc(Nc2nc(N3CCCCC3)nc(N3CCN(c4ncccc4Cl)CC3)n2)cc1 [Compound 52, {4-[4-(3-Chloro-pyridin-2-yl)-piperazin-1-yl]-6-piperidin-1-yl-[1,3,5]triazin-2-yl}-(4-trifluoromethyl-phenyl)-amine]
C[C@H]1CN(c2ncccc2Cl)CCN1c1nc(Nc2ccc(C(F)(F)F)cc2)nc(N(C)C)n1 [Compound 53, 6-[4-(3-Chloro-pyridin-2-yl)-2-methyl-piperazin-1-yl]-N,N-dimethyl-N′-(4-trifluoromethyl-phenyl)-[1,3,5]triazine-2,4-diamine (S)]
CC(C)N(C)c1nc(Nc2ccccc2)nc(N2CCN(c3ncccc3Cl)CC2)n1 [Compound 54, 6-[4-(3-Chloro-pyridin-2-yl)-piperazin-1-yl]-N-isopropyl-N-methyl-N′-phenyl-[1,3,5]triazine-2,4-diamine]
CC(C)N(C)c1nc(Nc2ccccc2)nc(N2CCN(c3ncccc3C(F)(F)F)CC2)n1 [Compound 55, N-Isopropyl-N-methyl-N′-phenyl-6-[4-(3-trifluoromethyl-pyridin-2-yl)-piperazin-1-yl]-[1,3,5]triazine-2,4-diamine]
FC(F)(F)c1ccc(Nc2nc(N3CCN(c4ncccc4Cl)CC3)nc(N3CCN(c4ncccc4Cl)CC3)n2)cc1 [Compound 56, {4,6-Bis-[4-(3-chloro-pyridin-2-yl)-piperazin-1-yl]-[1,3,5]triazin-2-yl}-(4-trifluoromethyl-phenyl)-amine]
FC(F)(F)c1cccnc1N1CCN(c2nc(Nc3ccccc3)cc(N3CCCCC3)n2)CC1 [Compound 57, Phenyl-{6-piperidin-1-yl-2-[4-(3-trifluoromethyl-pyridin-2-yl)-piperazin-1-yl]-pyrimidin-4-yl}-amine]
Fc1cccc(Nc2nc(N3CCOCC3)nc(N3CCN(c4ncccc4C(F)(F)F)CC3)n2)c1 [Compound 58, (3-Fluoro-phenyl)-{4-morpholin-4-yl-6-[4-(3-trifluoromethyl-pyridin-2-yl)-piperazin-1-yl]-[1,3,5]triazin-2-yl}-amine]
Fc1ccc(Nc2nc(N3CCOCC3)nc(N3CCN(c4ncccc4C(F)(F)F)CC3)n2)cc1 [Compound 59, (4-Fluoro-phenyl)-{4-morpholin-4-yl-6-[4-(3-trifluoromethyl-pyridin-2-yl)-piperazin-1-yl]-[1,3,5]triazin-2-yl}-amine]
Fc1cccc(Nc2nc(N3CCOCC3)nc(N3CCN(c4ncccc4Cl)CC3)n2)c1 [Compound 60, {4-[4-(3-Chloro-pyridin-2-yl)-piperazin-1-yl]-6-morpholin-4-yl-[1,3,5]triazin-2-yl}-(3-fluoro-phenyl)-amine]
Fc1ccc(Nc2nc(N3CCOCC3)nc(N3CCN(c4ncccc4Cl)CC3)n2)cc1 [Compound 61, {4-[4-(3-Chloro-pyridin-2-yl)-piperazin-1-yl]-6-morpholin-4-yl-[1,3,5]triazin-2-yl}-(4-fluoro-phenyl)-amine]
Clc1ccc(Nc2nc(N3CCOCC3)nc(N3CCN(c4ncccc4Cl)CC3)n2)cc1 [Compound 62, (4-Chloro-phenyl)-{4-[4-(3-chloro-pyridin-2-yl)-piperazin-1-yl]-6-morpholin-4-yl-[1,3,5]triazin-2-yl}-amine]
FC(F)(F)c1cccnc1N1CCN(c2nc(Nc3ccc(Cl)cc3)nc(N3CCOCC3)n2)CC1 [Compound 63, (4-Chloro-phenyl)-{4-morpholin-4-yl-6-[4-(3-trifluoromethyl-pyridin-2-yl)-piperazin-1-yl]-[1,3,5]triazin-2-yl}-amine]
Cc1ccc(Nc2nc(N3CCOCC3)nc(N3CCN(c4ncccc4C(F)(F)F)CC3)n2)cc1 [Compound 64, {4-Morpholin-4-yl-6-[4-(3-trifluoromethyl-pyridin-2-yl)-piperazin-1-yl]-[1,3,5]triazin-2-yl}-p-tolyl-amine]
Cc1ccc(Nc2nc(N3CCOCC3)nc(N3CCN(c4ncccc4Cl)CC3)n2)cc1 [Compound 65, {4-[4-(3-Chloro-pyridin-2-yl)-piperazin-1-yl]-6-morpholin-4-yl-[1,3,5]triazin-2-yl}-p-tolyl-amine]
Clc1cccc(Nc2nc(N3CCOCC3)nc(N3CCN(c4ncccc4Cl)CC3)n2)c1 [Compound 66, (3-Chloro-phenyl)-{4-[4-(3-chloro-pyridin-2-yl)-piperazin-1-yl]-6-morpholin-4-yl-[1,3,5]triazin-2-yl}-amine]
FC(F)(F)c1cccnc1N1CCN(c2nc(Nc3cccc(Cl)c3)nc(N3CCOCC3)n2)CC1 [Compound 67, (3-Chloro-phenyl)-{4-morpholin-4-yl-6-[4-(3-trifluoromethyl-pyridin-2-yl)-piperazin-1-yl]-[1,3,5]triazin-2-yl}-amine]
